In ChEMBL document CHEMBL3885881, “DrugMatrix”:

Organism: Rattus norvegicus
Test: DrugMatrix - Regimen: Daily Repeat
Type: toxicity, organism-based, Sprague-Dawley
Design: regimen Daily Repeat, gender Male, age 6-8 weeks
Conditions: in vivo, po, route oral GAVAGE, […]; for ABSOLUTE BASOPHIL / ABSOLUTE EOSINOPHIL / ABSOLUTE LYMPHOCYTE / ABSOLUTE MONOCYTE / BASOPHIL / EOSINOPHIL / ERYTHROCYTE COUNT / HEMATOCRIT / HEMOGLOBIN / LEUKOCYTE COUNT / LYMPHOCYTE / MEAN CORPUSCULAR HEMOGLOBIN / MEAN CORPUSCULAR HEMOGLOBIN CONCENTRATION / MEAN CORPUSCULAR VOLUME / MONOCYTE / NEUTROPHIL / PLATELET COUNT: tissue Blood
[1] = 0 mg/kg, 72 h, dose level Control, time 3 day
[2] = 0 mg/kg, 72 h, tissue Plasma, dose level Control, time 3 day
[3] = 0 mg/kg, 120 h, dose level Control, time 5 day
[4] = 0 mg/kg, 120 h, tissue Plasma, dose level Control, time 5 day
[5] = 0 mg/kg, dose level Control, time 14 day
[6] = 0 mg/kg, tissue Plasma, dose level Control, time 14 day
[7] = 40 mg/kg, 72 h, dose level Low, time 3 day
[8] = 40 mg/kg, 72 h, tissue Plasma, dose level Low, time 3 day

C=CCN [ALLYLAMINE]
ABSOLUTE BASOPHIL [1]: 50 cells/µL
ABSOLUTE EOSINOPHIL [1]: 43.3 cells/µL
ABSOLUTE LYMPHOCYTE [1]: 9670 cells/µL
ABSOLUTE MONOCYTE [1]: 210 cells/µL
BASOPHIL [1]: 0.4%
EOSINOPHIL [1]: 0.37%
ERYTHROCYTE COUNT [1]: 6.82 x10E6/uL
HEMATOCRIT [1]: 46.77%
HEMOGLOBIN [1]: 14.53 G/DL
LEUKOCYTE COUNT [1]: 11.77 x10E3/uL
LYMPHOCYTE [1]: 82.1%
MEAN CORPUSCULAR HEMOGLOBIN [1]: 21.33 pg
MEAN CORPUSCULAR HEMOGLOBIN CONCENTRATION [1]: 31.13 G/DL
MEAN CORPUSCULAR VOLUME [1]: 68.57 fL
MONOCYTE [1]: 1.8%
NEUTROPHIL [1]: 14.83%
PLATELET COUNT [1]: 1303.33 x10E3/uL
ALANINE AMINOTRANSFERASE [2]: 46.67 u/L
ALBUMIN [2]: 4.17 G/DL
ALKALINE PHOSPHATASE [2]: 530 u/L
ASPARTATE AMINOTRANSFERASE [2]: 81.33 u/L
BLOOD UREA NITROGEN [2]: 17.67 mg/dL
CARBON DIOXIDE [2]: 41.67 mmol/L
CHLORIDE [2]: 102 MEQ/L
CHOLESTEROL [2]: 70.33 mg/dL
CREATINE PHOSPHOKINASE [2]: 372.67 u/L
CREATININE [2]: 0.5 mg/dL
GLUCOSE [2]: 184 mg/dL
LIPASE [2]: 13.33 u/L
PHOSPHORUS [2]: 10.2 mg/dL
POTASSIUM [2]: 6.13 MEQ/L
SODIUM [2]: 145 MEQ/L
TOTAL BILIRUBIN [2]: 0.43 mg/dL
TOTAL PROTEIN [2]: 6.7 G/DL
URIC ACID [2]: 0.83 mg/dL
ABSOLUTE BASOPHIL [3]: 33.3 cells/µL
ABSOLUTE EOSINOPHIL [3]: 56.7 cells/µL
ABSOLUTE LYMPHOCYTE [3]: 9220 cells/µL
ABSOLUTE MONOCYTE [3]: 230 cells/µL
BASOPHIL [3]: 0.3%
EOSINOPHIL [3]: 0.5%
ERYTHROCYTE COUNT [3]: 6.62 x10E6/uL
HEMATOCRIT [3]: 46.43%
HEMOGLOBIN [3]: 14.3 G/DL
LEUKOCYTE COUNT [3]: 10.96 x10E3/uL
LYMPHOCYTE [3]: 83.83%
MEAN CORPUSCULAR HEMOGLOBIN [3]: 21.57 pg
MEAN CORPUSCULAR HEMOGLOBIN CONCENTRATION [3]: 30.77 G/DL
MEAN CORPUSCULAR VOLUME [3]: 70.13 fL
MONOCYTE [3]: 2.1%
NEUTROPHIL [3]: 12.53%
PLATELET COUNT [3]: 1056.67 x10E3/uL
ALANINE AMINOTRANSFERASE [4]: 41.33 u/L
ALBUMIN [4]: 4.07 G/DL
ALKALINE PHOSPHATASE [4]: 603.33 u/L
ASPARTATE AMINOTRANSFERASE [4]: 80 u/L
BLOOD UREA NITROGEN [4]: 14.67 mg/dL
CARBON DIOXIDE [4]: 43 mmol/L
CHLORIDE [4]: 104 MEQ/L
CHOLESTEROL [4]: 88.33 mg/dL
CREATINE PHOSPHOKINASE [4]: 391.67 u/L
CREATININE [4]: 0.47 mg/dL
GLUCOSE [4]: 156 mg/dL
LIPASE [4]: 10.67 u/L
PHOSPHORUS [4]: 9.03 mg/dL
POTASSIUM [4]: 6.1 MEQ/L
SODIUM [4]: 145.67 MEQ/L
TOTAL BILIRUBIN [4]: 0.37 mg/dL
TOTAL PROTEIN [4]: 6.53 G/DL
URIC ACID [4]: 0.5 mg/dL
ABSOLUTE BASOPHIL [5]: 73.3 cells/µL
ABSOLUTE EOSINOPHIL [5]: 60 cells/µL
ABSOLUTE LYMPHOCYTE [5]: 12200 cells/µL
ABSOLUTE MONOCYTE [5]: 250 cells/µL
BASOPHIL [5]: 0.5%
EOSINOPHIL [5]: 0.37%
ERYTHROCYTE COUNT [5]: 7.33 x10E6/uL
HEMATOCRIT [5]: 44.3%
HEMOGLOBIN [5]: 14.77 G/DL
LEUKOCYTE COUNT [5]: 14.86 x10E3/uL
LYMPHOCYTE [5]: 81.87%
MEAN CORPUSCULAR HEMOGLOBIN [5]: 20.2 pg
MEAN CORPUSCULAR HEMOGLOBIN CONCENTRATION [5]: 33.33 G/DL
MEAN CORPUSCULAR VOLUME [5]: 60.57 fL
MONOCYTE [5]: 1.63%
NEUTROPHIL [5]: 14.93%
PLATELET COUNT [5]: 1101.67 x10E3/uL
ALANINE AMINOTRANSFERASE [6]: 31.67 u/L
ALBUMIN [6]: 3.83 G/DL
ALKALINE PHOSPHATASE [6]: 430.67 u/L
ASPARTATE AMINOTRANSFERASE [6]: 87 u/L
BLOOD UREA NITROGEN [6]: 14.33 mg/dL
CARBON DIOXIDE [6]: 39 mmol/L
CHLORIDE [6]: 104 MEQ/L
CHOLESTEROL [6]: 66 mg/dL
CREATINE PHOSPHOKINASE [6]: 441.67 u/L
CREATININE [6]: 0.7 mg/dL
GLUCOSE [6]: 125.67 mg/dL
LACTATE DEHYDROGENASE [6]: 397.67 u/L
LIPASE [6]: 12.33 u/L
PHOSPHORUS [6]: 9.87 mg/dL
POTASSIUM [6]: 5.93 MEQ/L
SODIUM [6]: 145 MEQ/L
TOTAL BILIRUBIN [6]: 0.37 mg/dL
TOTAL PROTEIN [6]: 6.27 G/DL
URIC ACID [6]: 0.67 mg/dL
ABSOLUTE BASOPHIL [7]: 40 cells/µL
ABSOLUTE EOSINOPHIL [7]: 60 cells/µL
ABSOLUTE LYMPHOCYTE [7]: 9180 cells/µL
ABSOLUTE MONOCYTE [7]: 300 cells/µL
BASOPHIL [7]: 0.33%
EOSINOPHIL [7]: 0.53%
ERYTHROCYTE COUNT [7]: 7.09 x10E6/uL
HEMATOCRIT [7]: 45.93%
HEMOGLOBIN [7]: 14.27 G/DL
LEUKOCYTE COUNT [7]: 11.66 x10E3/uL
LYMPHOCYTE [7]: 78.7%
MEAN CORPUSCULAR HEMOGLOBIN [7]: 20.07 pg
MEAN CORPUSCULAR HEMOGLOBIN CONCENTRATION [7]: 31 G/DL
MEAN CORPUSCULAR VOLUME [7]: 64.77 fL
MONOCYTE [7]: 2.47%
NEUTROPHIL [7]: 17.23%
PLATELET COUNT [7]: 1151.67 x10E3/uL
ALANINE AMINOTRANSFERASE [8]: 38 u/L
ALBUMIN [8]: 3.8 G/DL
ALKALINE PHOSPHATASE [8]: 546.67 u/L
ASPARTATE AMINOTRANSFERASE [8]: 81.67 u/L
BLOOD UREA NITROGEN [8]: 16.67 mg/dL
CARBON DIOXIDE [8]: 38.67 mmol/L
CHLORIDE [8]: 105.67 MEQ/L
CHOLESTEROL [8]: 70.67 mg/dL
CREATINE PHOSPHOKINASE [8]: 634.67 u/L
CREATININE [8]: 0.6 mg/dL
GLUCOSE [8]: 204.33 mg/dL
LIPASE [8]: 283.33 u/L
PHOSPHORUS [8]: 9.93 mg/dL
POTASSIUM [8]: 6.43 MEQ/L
SODIUM [8]: 146 MEQ/L
